Data on six compounds can be found in PubChem BioAssay (NCI).

Test systems include SK-MEL-5 melanoma; OVCAR-4 ovarian; RPMI-8226 leukemia; HOP-92 NSCLC; A549 NSCLC; HCC-2998 colon; SK-OV-3 ovarian; CAKI-1 renal; COLO 205 colon; PC-3 prostate.
Test in all cases: DTP human tumour cell line panel, 48 h

The structures appear in SMILES notation. Where “and” joins values, the source holds several entries; their conditions need not be identical. Equal entries are not always repeated.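 Cells were grown in 96-well plates and exposed to each compound for 48 hours at five concentrations; endpoints were interpolated linearly between bracketing concentrations, or set to the highest concentration if not reached. GI50 is the concentration that inhibits growth by half. Definition used: TGI = concentration required for complete inhibition of growth.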

As to `CO[C@H](C(=O)[C@@H](O)[C@@H](C)O)[C@@H]1Cc2cc3cc(O[C@H]4C[C@@H](O[C@H]5C[C@@H](O)[C@H](O)C(C)O5)[C@H](O)C(C)O4)c(C)c(O)c3c(O)c2C(=O)[C@H]1O[C@H]1C[C@@H](O[C@H]2C[C@@H](O[C@H]3C[C@@H](OC)[C@H](O)C(C)O3)[C@@H](O)C(C)O2)C(O)(O)C(C)O1` (some centres undefined), the concentration for 50% growth inhibition (GI50) (usually the concentration giving 50% growth inhibition) with SK-MEL-5 melanoma is 0.0208 µM; in the test with OVCAR-4 ovarian, 0.404 µM; with RPMI-8226 leukemia, 0.182 µM; in the test with HOP-92 NSCLC, 0.103 µM; in the test with A549 NSCLC, 0.0843 µM; in the test with HCC-2998 colon, 0.47 µM. The 50% growth inhibitory concentration (GI50) with SK-OV-3 ovarian was 0.113 µM; in the test on CAKI-1 renal, 2.89 µM; in the test with COLO 205 colon, 0.0833 µM; in the test on PC-3 prostate, 0.396 µM. For the same compound, the total growth inhibition concentration (TGI) – broadly, the concentration at which net growth stops – in the test on SK-MEL-5 melanoma is 0.467 µM; in the test on OVCAR-4 ovarian, over 11.7 µM; in the test on RPMI-8226 leukemia it was over 11.4 µM; in the test on HOP-92 NSCLC it was over 6.49 µM; in the test on A549 NSCLC, over 25 µM; in the test on HCC-2998 colon, 5.09 µM. The TGI in the test with SK-OV-3 ovarian is over 25 µM; in the test with CAKI-1 renal, over 17.3 µM; with COLO 205 colon, 0.89 µM; with PC-3 prostate it was over 25 µM.

As for `Cc1c2cc[nH]c(=O)c2c(C)c2c1[nH]c1cc(OCCN3CCN(C)CC3)ccc12`, the GI50 in the test with SK-MEL-5 melanoma is 1.18 µM; with OVCAR-4 ovarian it was 1.17 µM; in the test on RPMI-8226 leukemia it was 1.63 µM; in the test on HOP-92 NSCLC it was 0.798 µM; in the test with A549 NSCLC it was 0.452 µM; with HCC-2998 colon, 1.26 µM. Also, the GI50 was 0.614 µM in the test on SK-OV-3 ovarian, 2.17 µM in the test on CAKI-1 renal, 0.353 µM in the test on COLO 205 colon and 1.03 µM in the test with PC-3 prostate. The TGI in the test with SK-MEL-5 melanoma is 2.44 µM; with OVCAR-4 ovarian it was 4.82 µM; in the test with RPMI-8226 leukemia, 5 µM; in the test with HOP-92 NSCLC it was 5.46 µM; in the test with A549 NSCLC, 1.96 µM; with HCC-2998 colon, 7.24 µM. Moreover, the TGI in the test on SK-OV-3 ovarian came to 5.9 µM; with CAKI-1 renal, 9.55 µM; with COLO 205 colon, 2.2 µM; in the test on PC-3 prostate, 7.48 µM.

On to `O=[N+]([O-])c1ccc(Nc2ccccc2-c2ccccc2)c2nonc12`, for which the GI50 in the test on SK-MEL-5 melanoma is 6 µM; with OVCAR-4 ovarian, 9.5 µM; in the test with RPMI-8226 leukemia, 6.91 µM; in the test with HOP-92 NSCLC, 3.15 µM; with A549 NSCLC, 16.7 µM; in the test with HCC-2998 colon, 11.7 µM. Also, the GI50 in the test with SK-OV-3 ovarian is 22 µM; in the test on CAKI-1 renal, 12.3 µM; in the test on COLO 205 colon it was 18.6 µM; in the test with PC-3 prostate it was 13.6 µM. The concentration for total growth inhibition (TGI) with SK-MEL-5 melanoma is 18.8 µM; in the test on OVCAR-4 ovarian, over 100 µM; in the test on RPMI-8226 leukemia, over 100 µM; in the test with HOP-92 NSCLC it was 23.4 µM; with A549 NSCLC it was over 86.8 µM; with HCC-2998 colon, 27.2 µM. The concentration for total growth inhibition (TGI) with SK-OV-3 ovarian was over 75.7 µM; with CAKI-1 renal it was 50.2 µM; with COLO 205 colon it was 45.2 µM; in the test with PC-3 prostate, 66.2 µM.

As to `Cc1ccc(C(=O)N(CCCN)[C@@H](c2nc3cc(Cl)ccc3c(=O)n2Cc2ccccc2)C(C)C)cc1`, the 50% growth inhibitory concentration (GI50) with SK-MEL-5 melanoma is under 0.01 µM; with OVCAR-4 ovarian it was 1.28 µM and 1.13 µM; with RPMI-8226 leukemia, under 0.01 µM; in the test with HOP-92 NSCLC it was 1 µM; in the test with A549 NSCLC, under 0.01 µM; in the test on HCC-2998 colon, under 0.01 µM. For the same compound, the 50% growth inhibitory concentration (GI50) in the test on SK-OV-3 ovarian, in the test on COLO 205 colon and with PC-3 prostate was under 0.01 µM in each case. For the same compound, the TGI with SK-MEL-5 melanoma is 1.35 µM and 1.46 µM; in the test on OVCAR-4 ovarian, 3.54 µM and 2.46 µM; with RPMI-8226 leukemia, 1.72 µM; in the test with HOP-92 NSCLC, 2 µM and 2.33 µM; in the test with A549 NSCLC it was 1.4 µM and 1.71 µM; in the test on HCC-2998 colon, 1.23 µM and 0.912 µM. The TGI in the test on SK-OV-3 ovarian was 1.65 µM and 2.19 µM; in the test with CAKI-1 renal, 2.33 µM and 1.94 µM; in the test on COLO 205 colon, 1.1 µM; with PC-3 prostate it was 2.32 µM and 1.76 µM.

As to `O=C(/C=C/c1ccc(B(O)O)cc1)/C=C/c1ccc(B(O)O)cc1`, the GI50 in the test with SK-MEL-5 melanoma is 1.94 µM; in the test on OVCAR-4 ovarian, 11.4 µM; with RPMI-8226 leukemia, 2.51 µM; in the test with HOP-92 NSCLC it was 7.94 µM; in the test on A549 NSCLC, 3.55 µM; in the test with HCC-2998 colon it was 1.95 µM. The GI50 in the test on SK-OV-3 ovarian was 3.65 µM; with CAKI-1 renal, 6.22 µM; in the test on COLO 205 colon, 2.21 µM; in the test with PC-3 prostate, 3.31 µM. Further, the total growth inhibition concentration (TGI) with SK-MEL-5 melanoma was 4.47 µM; with OVCAR-4 ovarian, 24 µM; in the test on RPMI-8226 leukemia it was 8.21 µM; in the test on HOP-92 NSCLC, 22.9 µM; in the test with A549 NSCLC, 15.2 µM; in the test with HCC-2998 colon, 3.61 µM. Besides, the TGI in the test with SK-OV-3 ovarian amounted to 14.5 µM; with CAKI-1 renal, 19.2 µM; with COLO 205 colon, 4.83 µM; with PC-3 prostate, 14.3 µM.

For `Cc1ccccc1NC(=S)Nc1ccccn1`, the GI50 in the test on SK-MEL-5 melanoma was 47.2 µM; in the test with OVCAR-4 ovarian, 72.5 µM; in the test with RPMI-8226 leukemia, 62.7 µM; with HOP-92 NSCLC, 10.6 µM; in the test with A549 NSCLC it was over 100 µM; in the test with HCC-2998 colon it was over 100 µM. The GI50 in the test with SK-OV-3 ovarian, in the test on CAKI-1 renal, in the test with COLO 205 colon and in the test on PC-3 prostate was over 100 µM throughout. Also, the TGI in the test on SK-MEL-5 melanoma, in the test on OVCAR-4 ovarian, with RPMI-8226 leukemia, with HOP-92 NSCLC, in the test with A549 NSCLC and in the test with HCC-2998 colon was over 100 µM each time. For the same compound, the TGI in the test with SK-OV-3 ovarian, with CAKI-1 renal, in the test with COLO 205 colon and in the test with PC-3 prostate was over 100 µM in each case.
